This is an account of results in patent US9643950B2, “Solid forms of {s-3-(4-amino-1-oxo-isoindolin-2-yl)(piperidine-3,4,4,5,5-d5)-2,6-dione}” (Concert Pharmaceuticals, Inc., priority 2012, dated 2017).

Each structure is given as a SMILES string. In brackets after ≈: the same amount, converted by molar mass. Entries after “also recorded” stand apart in the source; their conditions may differ. Like-named read-outs stand apart in the source and are kept apart here.

Holding throughout (type): physicochemical
Data set [1] in a line: Visually estimated solubility of Form 1 in an array of solvents. Here is the method:
Solubility of Form 1 was visually estimated in an array of different solvents. […] Where applicable, the undissolved solids were analyzed by PXRD to verify crystal form. The data are shown in and indicate that the solubility of Form 1 to be relatively low in water and common organic solvents, (<6 mg/mL), very high in dimethylsulfoxide (DMSO; >400 mg/mL), and moderate in water- or DMSO-containing binary solvent systems.
Solubility of Form 1 was visually estimated in an array of diverse solvents. […] Where applicable, the undissolved solids were analyzed by PXRD to verify crystal form. The data are shown in Table 2 and indicate that the solubility of Form 1 is relatively low in water and common organic solvents, (<6 mg/mL), very high in dimethylsulfoxide (DMSO; >400 mg/mL), and moderate in water- or DMSO-containing binary solvent systems.

The nature of data set [2]: Dynamic vapor sorption (DVS) hygroscopicity. On the procedure:
DVS experiments were conducted on a Surface Measurement Systems DVS-HT at 25° C. The instrument was operated in step mode and the relative humidity was increased in 10% RH increments from 40% RH to 90% RH, then decreased from 90% RH to 0% RH, then increased from 0% RH to 90% RH, then decreased from 90% RH to 0% RH. An extra step at 75% RH was included in each cycle. The mass equilibrium criterion was set at 0.005% change in mass over time (dm/dt) prior to each humidity level. A minimum step time of 10 minutes and a maximum step time of 240 minutes were specified.

Data set [3] is described as follows: Physical (solid form) stability on storage or stirring, by PXRD. Conditions: for Physical stability by PXRD: 40° C./75% RH for 6 days. On the procedure: PXRD diffractograms were acquired using PANalytical X'Pert Pro diffractometer on Si zero-background wafers. All diffractograms were collected using a monochromatic Cu Kα (45 kV/40 mA) radiation and a step size of 0.02° 2θ.
Form 1 is a crystalline powder with a PXRD pattern indicated at FIG. 1. FT-Raman (FIG. 2) and FT-IR Spectra (FIG. 3) were also collected. […] HPLC analysis indicated high purity of the material (>99.9% AUC). […] (FIG. 4). The PXRD diffractogram of the material heated past the exothermic event (heating to 261° C. followed by isothermal hold for 7 min) indicates a racemization of D-(S)-lenalidomide, as confirmed by chiral HPLC analyses of a reference material. […] This conclusion is based on two simultaneously run experiments. In one experiment, […] was exposed to 40° C./75% RH. […] Moreover, even this formation of Form 3 may have been at least in part the result of condensation inside of the RH chamber towards the end of the experiment, as a result of which Form 1 became slightly wet.
PXRD (FIG. 6) and PLM microscopy analyses indicate Form 2 to be partially crystalline and phase-impure with amorphous content. Thermal analyses confirmed that the material loses 4.3% wt. upon heating up to 160° C. (FIG. 8). IR analysis of the volatile component released upon heating confirmed water. The loss of water corresponds to broad endothermic (50-100° C.) and exothermic (120-160° C.) events on the DSC trace (FIG. 8), indicating potential dehydration and crystallization, respectively. An FT-Raman spectrum is provided at FIG. 7.

A short description of data set [4]: Relative stability of Forms 1 and 3 in water/organic mixtures (seeded suspensions). Here is the method:
A series of experiments were conducted to assess the relative stability of Forms 1 and 3. […] The suspensions were each seeded with a small amount of Form 3 (˜1 mg) and stirred until a complete form conversion occurred.

A short description of data set [5]: HPLC analysis of degradation. Conditions: material from rapid evaporation of methanol solution (rotovapped at 65° C.). On the procedure:
HPLC analyses were conducted with an HP1100 system equipped with a G1131 Quad pump, G1367A autosampler, and G1315B diode array detector. Column: Luna C18(2) (50×2.0 mm, 3 μm). Mobile phase: 100% vol. water (0.05% vol. TFA) to 95% acetonitrile (0.05% vol. TFA) over 8 min and 2 min re-equilibration. Flow rate: 1 mL/min. Detection: 254 nm.

As to `[2H]C1([2H])C(=O)NC(=O)[C@@]([2H])(N2Cc3c(N)cccc3C2=O)C1([2H])[2H]` (single isomer, unassigned) [Form 1, 3-(4-amino-1-oxoisoindolin-2-yl)(piperidine-3,4,4,5,5-d5)-2,6-dione], the “Residual Solid (crystal form of undissolved solids by PXRD)” value in data set [1] (1,4-Dioxane), in data set [1] (2-Propanol), in data set [1] (Dichloromethane), in data set [1] (Ethyl Acetate), in data set [1] (Heptane) and in data set [1] (Toluene) was “Form 1” in each case. In addition, the solubility in data set [1] (1,4-dioxane, 40 °C, organic solvent or mixture, thermodynamic from solid, read-out: Solubility at 40° C.) is > 6000 µg/mL; in data set [1] (2-propanol, 40 °C, organic solvent or mixture, thermodynamic from solid, read-out: Solubility at 40° C.) it was < 1000 µg/mL; in data set [1] (dichloromethane, 40 °C, organic solvent or mixture, thermodynamic from solid, read-out: Solubility at 40° C.), < 1000 µg/mL; in data set [1] (ethyl acetate, 40 °C, organic solvent or mixture, thermodynamic from solid, read-out: Solubility at 40° C.), < 1000 µg/mL; in data set [1] (heptane, 40 °C, organic solvent or mixture, thermodynamic from solid, read-out: Solubility at 40° C.), < 1000 µg/mL; in data set [1] (organic solvent or mixture, thermodynamic from solid, 1,4-Dioxane, 20° C., read-out: Solubility at RT), < 1000 µg/mL. The solubility in data set [1] (organic solvent or mixture, thermodynamic from solid, 2-Propanol: 10% vol. DMSO, 20° C., read-out: Solubility at RT) is 1000 to 10000 µg/mL (≈ 3.78 to 37.8 mM); in data set [1] (organic solvent or mixture, thermodynamic from solid, 2-Propanol, 20° C., read-out: Solubility at RT) it was < 1000 µg/mL; in data set [1] (organic solvent or mixture, thermodynamic from solid, Acetone, 20° C., read-out: Solubility at RT), 1000 to 6000 µg/mL (≈ 3.78 to 22.7 mM); in data set [1] (organic solvent or mixture, thermodynamic from solid, Acetonitrile: 10% vol. DMSO, 20° C., read-out: Solubility at RT), 10000 to 30000 µg/mL (≈ 37.8 to 114 mM); in data set [1] (organic solvent or mixture, thermodynamic from solid, Acetonitrile: 10% vol. Water, 20° C., read-out: Solubility at RT) it was 14000 to 17000 µg/mL (≈ 53 to 64.3 mM); in data set [1] (organic solvent or mixture, thermodynamic from solid, Acetonitrile, 20° C., read-out: Solubility at RT), 1000 to 6000 µg/mL (≈ 3.78 to 22.7 mM). The solubility in data set [1] (organic solvent or mixture, thermodynamic from solid, DMSO, 20° C., read-out: Solubility at RT) is > 400000 µg/mL; in data set [1] (organic solvent or mixture, thermodynamic from solid, Dichloromethane, 20° C., read-out: Solubility at RT), < 1000 µg/mL; in data set [1] (organic solvent or mixture, thermodynamic from solid, Ethyl Acetate, 20° C., read-out: Solubility at RT) it was < 1000 µg/mL; in data set [1] (organic solvent or mixture, thermodynamic from solid, Heptane, 20° C., read-out: Solubility at RT) it was < 1000 µg/mL; in data set [1] (organic solvent or mixture, thermodynamic from solid, Methanol: 5% vol. Water, 20° C., read-out: Solubility at RT), 1000 to 10000 µg/mL (≈ 3.78 to 37.8 mM); in data set [1] (organic solvent or mixture, thermodynamic from solid, Methanol: 10% vol. Water, 20° C., read-out: Solubility at RT), 1000 to 10000 µg/mL (≈ 3.78 to 37.8 mM). The solubility in data set [1] (organic solvent or mixture, thermodynamic from solid, Methanol, 20° C., read-out: Solubility at RT) is 1000 to 6000 µg/mL (≈ 3.78 to 22.7 mM); in data set [1] (organic solvent or mixture, thermodynamic from solid, Tetrahydrofuran, 20° C., read-out: Solubility at RT), 1000 to 6000 µg/mL (≈ 3.78 to 22.7 mM); in data set [1] (organic solvent or mixture, thermodynamic from solid, Toluene, 20° C., read-out: Solubility at RT) it was < 1000 µg/mL; in data set [1] (thermodynamic from solid, Water, 20° C., read-out: Solubility at RT), 1000 to 6000 µg/mL (≈ 3.78 to 22.7 mM); in data set [1] (thermodynamic from solid, water and common organic solvents, 20° C., read-out: Solubility), < 6000 µg/mL; in data set [1] (toluene, 40 °C, organic solvent or mixture, thermodynamic from solid, read-out: Solubility at 40° C.), < 1000 µg/mL. Moreover, in data set [1] (water- or DMSO-containing binary solvent systems, 20° C.), the solubility entry is on record as “moderate”. In addition, in data set [1] (DMSO, 20° C.), the “Solubility at RT” value is >400000 µg/mL. Moreover, in data set [2] (between 0-90% RH, 25° C.), the DVS weight gain is given as < 0.65 wt. %. For the same compound, in data set [3], the “Physical stability by PXRD” value is recorded as “physically stable; also recorded: Form 1 as the major component, with only a trace of Form 3 being formed”. Besides, the “Produced Crystal Form” value in data set [4] (1,4-Dioxane:Water 90:10% vol., water activity 0.7, 5 °C, seeded with Form 3) was “Form 3”; in data set [4] (1,4-Dioxane:Water 90:10% vol., water activity 0.7, 20 °C, seeded with Form 3) it was “Form 1”; in data set [4] (1,4-Dioxane:Water 96.5:3.5% vol., water activity 0.5, 7 °C, seeded with Form 3), “Form 1”; in data set [4] (1,4-Dioxane:Water 96.5:3.5% vol., water activity 0.5, 20 °C, seeded with Form 3), “Form 1”; in data set [4] (1,4-Dioxane:Water 99:1% vol., water activity 0.2, 20 °C, seeded with Form 3), “Form 1”; in data set [4] (Water, water activity 1.0, 5 °C, Form 1 suspension seeded with Form 3), “Form 3”. Further, the “Produced Crystal Form” value in data set [4] (Water, water activity 1.0, 20 °C, Form 1 suspension seeded with Form 3) is listed as “Form 3”. Further, the “Water activity (αw) at which the form is the more stable” value is < 0.7 in data set [4] (20° C.); < 0.5 in data set [4] (lower temperatures (5, and 7° C.)).
As to `[2H]C1([2H])C(=O)NC(=O)[C@@]([2H])(N2Cc3c(N)cccc3C2=O)C1([2H])[2H]` [Amorphous D-(S)-lenalidomide], the “Degradation by HPLC” value in data set [5] was 2.5 % AUC.
`[2H]C1([2H])C(=O)NC(=O)[C@@]([2H])(N2Cc3c(N)cccc3C2=O)C1([2H])[2H]` [Form 2]: the Time physically stable in data set [3] was “at least 24 hrs”. In addition, the “Form conversion on storage” value in data set [3] (closed vial at room temperature, within 3 weeks) is “converts to a mixture of Forms 1 and 3; also recorded: converted to Forms 1 and 3”. Moreover, the “Form obtained upon stirring in water” value in data set [3] (water, 12 hr at 5° C.) was “Form 3 formed”.
As for `[2H]C1([2H])C(=O)NC(=O)[C@@]([2H])(N2Cc3c(N)cccc3C2=O)C1([2H])[2H]` [Form 3], the DVS behaviour result in data set [2] (below 20% relative humidity) was “dehydrate and re-hydrate with a relatively small hysteresis”. Besides, the DVS weight change result in data set [2] (between 20-90% relative humidity, room temperature) is “no weight change”. In data set [2] (equilibrated at 0% RH for four hours), the “PXRD of residual solid after DVS” value is reported as “no change in solid form”. Besides, in data set [3], the “Physical stability by PXRD” value is “about half of the solid converted to Form 1; also recorded: partial conversion to Form 1”. Moreover, the Time physically stable in data set [3] (stored in a closed vial) was “at least 3 weeks”. In data set [4] (20° C.), the “Water activity (αw) at which the form is the more stable” value is listed as > 0.7.

Usually solubility stands for the concentration that dissolves in the medium under given conditions. A word on the Solubility: it is how much of the substance goes into solution per volume.
